For experiment [1], the target named is T1, DPS (deoxypodophyllotoxin synthase) (Sinopodophyllum hexandrum, UniProt A0A0N9HQ36). Conditions: co-substrate; Fe bound, bidentate, offline mode; pH 8.5.
Experiment [2] has as its target T1, DPS (deoxypodophyllotoxin synthase). Conditions: coproduct at Fe active site, with Fe and (±)-yatein; pH 7.5.

Experimental findings from publication PMC8740726 (Proceedings of the National Academy of Sciences of the …, 2021) are described below.

T1 sequence (A0A0N9HQ36 whole entry): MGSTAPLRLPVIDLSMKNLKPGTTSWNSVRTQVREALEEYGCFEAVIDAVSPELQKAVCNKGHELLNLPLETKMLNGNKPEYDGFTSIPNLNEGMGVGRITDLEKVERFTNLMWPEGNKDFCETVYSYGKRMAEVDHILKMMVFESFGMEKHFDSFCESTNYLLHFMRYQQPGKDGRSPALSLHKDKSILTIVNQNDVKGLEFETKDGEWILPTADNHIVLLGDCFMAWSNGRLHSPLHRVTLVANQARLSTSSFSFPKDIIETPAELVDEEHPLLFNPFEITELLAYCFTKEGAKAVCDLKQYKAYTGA

Take `O=C(O)CCC(=O)C(=O)O` [2OG]: the “X-ray crystal structure, 2.09 A” value in experiment [1] is “Overall structure of the DPS•Fe•2OG ternary complex (Protein Data Bank identification: 7E37)”.

In the case of `O=C(O)CCC(=O)O` [succinate], the “X-ray crystal structure, 2.05 A” value in experiment [2] is “The substrate (−)-6a and the coproduct succinate are shown in stick representation”.
